Assay results published in patent US20100197765A1, “METHOD FOR PROMOTING THE EXPRESSION OF P53, AND P53 EXPRESSION PROMOTER FOR USE IN THE METHOD” (THE UNIVERSITY OF TOKUSHIMA, priority 2007, published 2010).

Legend:
[1] = system: HCT116 cells; experiment: p53 mRNA, vegf IresRNA and vegf mRNA in HCT116 cells exposed to genotoxic stress (Northern); assay type: cell-based, human
Protocol: HCT116 cells (parent cells) were exposed to genotoxic stress that upregulates the expression of p53 mRNA. […] Also, HCT116 cells were exposed to UV-B for 1 minute. Then, after placing them under non-exposed conditions for a predetermined time (6, 12 hours), the expressions were examined in the same manner as in the above.

[2] = system: p53; experiment: p53 mRNA (quantitative RT-PCR) and protein in HCT116 clones stably expressing vegf IresRNA, cisplatin treated; assay type: cell-based, human; conditions: mock HCT116 cells, cisplatin 5 μg/mL, 6 h, 12 h vs 0 h
Excerpt: Full length cDNAs of vegf IresRNA having a sequence from base 600 to base 879 in 5′ UTR of vegf mRNA of SEQ ID NO. 1 were inserted into plasmid vectors pcDNA3.1 (Invitrogen). Thus, vegf IresRNA expression vectors (pcDNA-vegf Ires) were produced. These vegf IresRNA expression vectors (pcDNA-vegf Ires) were transfected into HCT116 (parent cells, wild-type p53), and two types of cell clones that stably overexpress vegf IresRNA were selected with an antibiotic G418. The thus-established two types of vegf IresRNA-expressing cells are hereinafter referred to as vegf Ires-#1 and vegf Ires-#2. Furthermore, as a mock treatment, plasmid vectors pcDNA3.1 lacking the above-described insert were transfected into HCT116 cells, and the transfect cell clones were selected with the antibiotic G418. These cell clones were hereinafter referred to as a mock. Then, expression of vegf IresRNA in these cell clones was examined by Northern blotting.
Subsequently, each of these vegf IresRNA-stably expressing cell strains was treated in the presence or absence of 5 μg/mL of an anticancer agent cisplatinin for a predetermined time (0, 6, 8, 12, 24 h). Thereafter, the expression level of p53 mRNA was analyzed by quantitative RT-PCR, and the expression level of p53 protein was analyzed by Western immunoblotting. […]

SMILES: N.N.[Cl][Pt][Cl] [cisplatin]
- expression of the p53 mRNA ([1]; HCT116, 5-FU 80 μmol/L, MMC 6 μg/ml or cisplatin 5 μg/ml, 0, 6, 12 hours): increased
- expression of the vegf IresRNA ([1]; HCT116, cisplatin 5 μg/ml): decreased
- expressions of p53 mRNA and p53 protein [2]: significant increase
